Assay results reported in ChEMBL document CHEMBL5029168, “Discovery of novel ID2 antagonists from pharmacophore-based virtual screening as potential therapeutics for glioma” (Bioorg Med Chem, 2021).
pIC50: −log10 of the molar value.

Assays:
GL261 = assay: Cytotoxicity against mouse GL261 cells assessed as reduction in cell viability incubated for 24 hrs by CCK8 assay; format: functional, cell-based; conditions: GL261, 24 h
Hs 683 = assay: Cytotoxicity against human Hs 683 cells assessed as reduction in cell viability incubated for 24 hrs by CCK8 assay; format: functional, cell-based; conditions: Hs 683, 24 h
U-87 MG = assay: Cytotoxicity against human U87 cells assessed as reduction in cell viability incubated for 24 hrs by CCK8 assay; format: functional, cell-based, U-87MG ATCC
[1] = Aqueous solubility of compound at up to 80 uM measured after 10 mins by optical microscopic analysis; format: physicochemical; conditions: buffer

For CC1Oc2ccc(S(=O)(=O)Nc3ccc(CCC(=O)O)cc3)cc2NC1=O (stereo not drawn), the pIC50 (GL261) was 4.28, the pIC50 (Hs 683) was 4.38 and the pIC50 (U-87 MG) was 4.32.
Compound CCN(C(=O)[C@H](Cc1ccccc1)NS(=O)(=O)c1cccc2nsnc12)c1ccccc1 has a pIC50 (GL261) of 4.22, a pIC50 (Hs 683) of 4.16 and a pIC50 (U-87 MG) of 4.18.
With Cc1ccc(CN2C(=O)[C@](O)(CC(=O)c3ccc4c(c3)OCO4)c3cc(Br)ccc32)cc1 the pIC50 (GL261) was 4.67, the solubility [1] was “Insoluble” and the pIC50 (Hs 683) was 4.73. It also gave a pIC50 (U-87 MG) of 4.81.
Work on COc1ccc(NS(=O)(=O)c2ccc(NC(=S)NC(=O)C(C)C)cc2)cc1 yielded a pIC50 (GL261) of 4.21, a pIC50 (Hs 683) of 4.27 and a pIC50 (U-87 MG) of 4.25.
